{"source": "patent EP3335730A1", "about": "“COMPOUNDS FOR TREATING X-LINKED ADRENOLEUKODYSTROPHY” (Fundació Institut de Recerca Biomédica de Bellvitge …, priority 2016, dated 2018)", "key": {"Abcd1 null mice": {"test_system": "Abcd1 null mice", "assay": "Immunoblot (Western blot) of ER stress and UPR markers in spinal cords of X-ALD mice", "type": "in vivo", "conditions": "diet with 0.4 % (wt/wt) TUDCA for 3 months", "text": "The generation and genotyping of Abcd1 null mice have been previously described (Pujol A. et al., Hum Mol Genet 2002; 11:499-505, Lu JF. et al., Proc.Natl.Acad.Sci.U.S.A 1997; 94:9366-9371.). Mice used for experiments were of a pure C57BL/6J background. Abcd1 null and WT mice were separated into control and treated groups. Treated groups were fed with a mixture of antioxidants that included 1000 iu/kg Vitamin E and 0.5% α-lipoic acid in the diet and 1% N-acetyl-cysteine (NAC) in water. Daily feedings were initiated at 8 months of age and were continued for 4 months until sacrifice.\n(§1) The bile acid tauroursodeoxycholic acid TUDCA (Prodotti Chimici e Alimentari S.p.A., Italy) was mixed into AIN-76A chow (Dyets) at 0.4% w/w. Male mice were randomly assigned to one of the following groups: wild-type mice (n=10) that received normal AIN-76A chow, Abcd1^-/- mice (n=10) that received normal AIN-76A chow and Abcd1^-l- mice (n=10) that received AIN-76A chow containing TUDCA. The animals were treated for 3 months starting at 9 months of age to assess its effect on the progression of the biochemical signs of X-linked adrenoleukodystrophy. […]\nTissues were lysed in ice-cold RIPA buffer (50 mM Tris-HCl, pH 8, 12 mM deoxycholic acid, 150 mM NaCl and 1% NP40, supplemented with Complete Protease Inhibitor Cocktail, Roche) using a Teflon-on-glass homogenizer and then centrifuged at 1500 x g for 10 min at 4°C. The protein concentration was determined using a BCA protein assay kit (Thermo Fisher Scientific, Inc.). […]\nTo determine whether ER stress is regulated by redox imbalance in vivo, the inventors treated with antioxidants during 4 months the presymptomatic Abcd1 null mice at 8 months of age. Next, they assessed by Western Blots the presence of ER stress and UPR responses.\nThe mouse model of the disease, the Abcd1 null mouse, develops a late onset axonopathy that resembles the most frequent X-linked adrenoleukodystrophy phenotype, AMN. […] Then, the inventors determined the protein levels of ER stress marker dysregulated in the Abcd1 null mice. […]"}, "Abcd1^-/Abcd2^-/- mice [1]": {"test_system": "Abcd1^-/Abcd2^-/- mice", "assay": "Immunohistochemistry of axonal degeneration, microgliosis and astrocytosis in spinal cord", "type": "in vivo", "conditions": "17-month-old double knockout mice, 0.4% w/w TUDCA in chow for 4 months from 13 months of age", "experimental": "(§2) The bile acid tauroursodeoxycholic acid TUDCA (Prodotti Chimici e Alimentari S.p.A., Italy) was mixed into AIN-76A chow (Dyets) at 0.4% w/w. Male mice were randomly assigned to one of the following groups: wild-type mice (n=10) that received normal AIN-76A chow, Abcd1^-/- mice (n=10) that received normal AIN-76A chow and Abcd1^-l- mice (n=10) that received AIN-76A chow containing TUDCA. The animals were treated for 3 months starting at 9 months of age to assess its effect on the progression of the biochemical signs of X-linked adrenoleukodystrophy. The double knockout mice and their control littermates were randomly assigned to one of the following groups: wild-type mice (n=10) that received normal AIN-76A chow; double knockout mice (n =10) that received normal AIN-76A chow; and double knockout mice (n =10) that received AIN-76A chow containing TUDCA. The animals were treated for 4 months starting at 13 months of age to coincide with the onset of clinical signs. TUDCA had no effect on weight or food intake under either treatment protocol.\n[…] Immunohistochemistry was carried out with the avidin-biotin peroxidase method and at least five sections of the spinal cord were analysed per animal and per stain. […] The results were expressed as the mean ± standard deviation. […]"}, "Abcd1^-/Abcd2^-/- mice [2]": {"test_system": "Abcd1^-/Abcd2^-/- mice", "assay": "Hindlimb clasping test", "type": "in vivo", "conditions": "double knockout mice with TUDCA; untreated score 1, wild type 2; Figure 3A", "experimental": "as §1\n(§3) For behavioral testing, assessment of hindlimb clasping was done by suspending mice from their tails until it reached a vertical position, but allowing the mice to grab the grill of the lid of the cage with the forelimbs, adapted from Dumser et al. cited supra. Hindlimb reflex was analysed for 10s in three consecutive trials separated by 5 min rest. […]\n(§4) Locomotor deficits in Abcd1 /Abcd2^-/- mice were evaluated using clasping, treadmill and bar cross experiments after TUDCA treatment as described (Dumser M- et al., 2007 cited supra, Launay N. et al., 2015 cited supra). […]"}, "Abcd1^-/Abcd2^-/- mice [3]": {"test_system": "Abcd1^-/Abcd2^-/- mice", "assay": "Treadmill test", "type": "in vivo", "conditions": "double knockout mice, after 3 months of treatment with TUDCA; Figure 3B", "experimental": "as §1, §3, §4"}, "Abcd1^-/Abcd2^-/- mice [4]": {"test_system": "Abcd1^-/Abcd2^-/- mice", "assay": "Bar cross test", "type": "in vivo", "conditions": "double knockout mice with TUDCA; Figure 3C", "experimental": "as §1, §3, §4"}, "[5]": {"assay": "Weight and food intake during treatment in chow", "type": "in vivo, mice", "conditions": "0.4% w/w in AIN-76A chow, either treatment protocol (3 months from 9 months; 4 months from 13 months)", "experimental": "as §2"}}}
{"smiles": "C[C@H](CCC(=O)NCCS(=O)(=O)O)[C@H]1CC[C@H]2[C@@H]3[C@@H](O)C[C@@H]4C[C@H](O)CC[C@]4(C)[C@H]3CC[C@]12C", "note": "[TUDCA, 3α,7β-Dihydroxy-5β-cholanoyltaurine]", "values": [{"measurement": "ATF6, P-PERK, P-eif2α/eif2α, ATF4 and CHOP levels", "setting": "Abcd1 null mice; Figure 1C", "value": "normalized"}, {"measurement": "PDI upregulation", "setting": "Abcd1 null mice; Figure 1D", "value": "prevented"}, {"measurement": "levels of the ER chaperones GRP78 and GRP94", "setting": "Abcd1 null mice; Figure 1D", "value": "normalized"}, {"measurement": "axonal damage markers", "setting": "Abcd1^-/Abcd2^-/- mice [1]; APP and synaptophysin accumulation, Figures 2A, 2B", "value": "strikingly reduced to control levels"}, {"measurement": "numbers of reactive astrocytes and reactive microglia", "setting": "Abcd1^-/Abcd2^-/- mice [1]; GFAP and Iba-1 staining, Figure 2A", "value": "strikingly reduced to control levels"}, {"measurement": "median clasping score", "setting": "Abcd1^-/Abcd2^-/- mice [2]", "value": 1.75}, {"measurement": "shock times and number of shocks", "setting": "Abcd1^-/Abcd2^-/- mice [3]", "value": "indistinguishable from wild types"}, {"measurement": "number of slips", "setting": "Abcd1^-/Abcd2^-/- mice [4]", "value": "normalized"}, {"measurement": "time necessary to cross the bar", "setting": "Abcd1^-/Abcd2^-/- mice [4]", "value": "normalized"}, {"measurement": "food intake", "setting": "[5]", "value": "no effect"}, {"measurement": "weight", "setting": "[5]", "value": "no effect"}]}
